Source: patent US12091402B2 (Avilar Therapeutics, Inc., priority 2021, dated 2024)
Where two headings read alike, the source gives them in different places. Blank lines part the entries; values can stand above or below the molecule they belong to.

Tests used:
[1] = target: T1, ASGPR receptor on the cell surface (HepG2 cells) (Homo sapiens, UniProt P07306); assay: Ternary complex formation assay (flow cytometry, HepG2); format: cell-based; details: HepG2 cells
T1 construct: host or cells: HepG2
T1 sequence (P07306 1-291): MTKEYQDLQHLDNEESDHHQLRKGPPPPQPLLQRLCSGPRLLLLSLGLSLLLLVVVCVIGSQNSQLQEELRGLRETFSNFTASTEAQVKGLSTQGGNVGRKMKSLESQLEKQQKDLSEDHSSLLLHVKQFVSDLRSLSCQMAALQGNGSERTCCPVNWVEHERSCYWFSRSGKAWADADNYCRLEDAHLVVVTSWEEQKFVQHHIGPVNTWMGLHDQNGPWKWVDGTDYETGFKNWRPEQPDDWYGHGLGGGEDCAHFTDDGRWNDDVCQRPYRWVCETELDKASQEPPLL
T1 sequence (P07307 1-311 partner): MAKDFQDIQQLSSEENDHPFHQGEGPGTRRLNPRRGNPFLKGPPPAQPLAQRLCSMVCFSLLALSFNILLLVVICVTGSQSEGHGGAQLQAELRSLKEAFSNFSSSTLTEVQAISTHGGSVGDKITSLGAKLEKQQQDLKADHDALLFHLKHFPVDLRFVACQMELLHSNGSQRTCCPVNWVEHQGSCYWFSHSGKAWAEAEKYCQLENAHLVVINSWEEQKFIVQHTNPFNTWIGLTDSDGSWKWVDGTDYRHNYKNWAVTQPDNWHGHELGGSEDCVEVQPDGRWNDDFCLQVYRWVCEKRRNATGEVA
Source text: The ternary complex formation assay is designed to identify the concentration of Degrader required to form a complex between the degrader, a constant concentration of fluorescently-labeled antibody and the ASGPR receptor on the cell surface. The peak mean fluorescence intensity (MFI) occurs at the optimal degrader concentration for ternary complex formation. Sub-optimal concentrations of degrader (too much or too little) results in fewer complexes formed and a reduced […].
Human IgG (Sigma-Aldrich, 14506) was covalently labeled with Alexa Fluor 488 using the Alexa Fluor™ 488 Protein Labeling Kit (Thermo Fisher, A10235) following the manufacturer's instructions. HepG2 cells (ATCC, HIB-8065) were cultured to about 70% confluence and harvested by trypsinization. Single cell suspensions of HepG2 cells were plated in 96 well plates at 1×10^5 cells/well in cell culture media (DMEM supplemented with […]) and placed at 4° C. For studies using human IgG, cells were incubated with 100 nM AF488-labeled anti-human IgG and serial dilutions of IgG-based degrader for 1 hour at 4° C. For studies using DNP, cells were incubated with 100 nM AF488-labeled polyclonal rabbit anti-dinitrophenyl (DNP) antibodies (ThermoFisher) and serial dilutions of DNP-based degrader for 1 hour at 4° C. After washing once with ice-cold PBS containing 0.1% BSA and 0.1% sodium azide, cells were resuspended in 150 uL PBS+0.1% BSA and cell-associated AF488 fluorescence was measured by flow cytometry using the iQue® Screener PLUS Flow Cytometer (IntelliCyt).

[2] = target: IgG; assay: Affinity to IgG by surface plasmon resonance (SPR); format: binding
Procedure: Immobilization levels ranging from 1000-1300 resonance units (RU) are obtained. The running buffer is 10 mM HEPES, pH 7.4, 400 mM NaCl, 0.005% P20, […].

[3] = system: HepG2 cells; assay: Cellular uptake assay of AF488-labeled antibody (HepG2); format: cell-based
Procedure: The cellular uptake assay is designed to measure compound-mediated cellular uptake of fluorescently labeled antibody following ternary complex formation with the ASGPR receptor and endocytosis of the entire complex into cells.
Human IgG (Sigma-Aldrich, 14506) was covalently labeled with Alexa Fluor 488 using the Alexa Fluor™ 488 Protein Labeling Kit (Thermo Fisher, A10235) following the manufacturer's instructions. HepG2 cells were plated in DMEM supplemented with 10% FBS at 5,000 cells per well in a 96-well microtiter plate and incubated for approximately 18 hours at 37° C./5% CO2. For studies using human IgG, 100 nM AF488-labeled human IgG antibodies and serial dilutions of IgG-based degrader (0.1% DMSO final concentration) were added to the cells and the mixture was incubated at 37° C. for 6 hours. For studies using DNP, 100 nM AF488-labeled DNP antibodies and serial dilutions of DNP-based degrader (0.1% DMSO final concentration) were added to the cells and the mixture was incubated at 37° C. for 6 hours. HepG2 cells were fixed in 100% methanol at −20° C. for 20 min, washed 3× with PBS, then stained with DAPI (Thermo, Cat #H3570). HepG2 cells were imaged for DAPI and Alexa Fluor 488 using the Operetta CLS, high-content analysis system (PerkinElmer). Data is presented as the ratio of the number of cells positive for hIgG or DNP (AF-488 fluorescence) over the total cell number (measured by DAPI).

[4] = target: T2, ASGPR (Homo sapiens, UniProt P07306); assay: Affinity to ASGPR by surface plasmon resonance (SPR)
T2 sequence (P07306 1-291): T1 sequence (P07306 1-291)
Procedure: Biotinylated ASGPR (20 μg/ml) was immobilized on SA sensor chips (GE Healthcare) at flow rate of 5 μl/min for 90 sec reaching an immobilization level ranging from 500-3000 resonance units (RU). The running buffer was 50 mM HEPES, pH7.5, 150 mM NaCl, 50 mM CaCl2), 0.01% P20, 3% DMSO. The concentration of compounds vary from 2 mM to 5 nM depending on Kd values. The compounds are diluted 2 or 3-fold with 8 concentration points. Solutions containing serially diluted compounds are injected at a flow rate of 40 μL/min for 150-300 sec followed by a 90-300 sec dissociation phase for each concentration. The surface was regenerated using 50 mM HEPES, pH 7.5, 150 mM NaCl, 5 mM EDTA, 0.01% P20, 3% DMSO.
Data was processed using the analysis software in Biacore 8K to perform background subtraction, double referencing, and solvent correction. Values of affinity expressed as the dissociation constants (Kd) were determined by fitting the steady state binding responses (RUs) as a function of the concentration ([Compound]) using the following equation: RU=RUmax/(KD+[Compound]), where RU max is the calculated maximal response. Where appropriate double-referenced data were fit to using a 1:1 binding model for kinetic analysis.

[5] = Biacore 8K, 25° C., IgG on CM5 chip, read-out: IgG SPR Binding Kd
[6] = HepG2 cells, 100 nM AF488-labeled antibody, 37° C. for 6 hours, class symbols, read-out: Uptake Assay EC50
[7] = HepG2 cells, read-out: Uptake EC50

EC50 ([1]; 100 nM AF488-labeled antibody, 1 hour at 4° C., numeric bounds, read-out: Ternary Complex EC50): > 10000 nM
Structure (SMILES): O=C(CCOCC(COCCC(=O)NCCOCCOCCOCCOC[C@@]12CO[C@@H](O1)[C@H](NC(=O)C(F)(F)F)[C@@H](O)[C@H]2O)NC(=O)COCCOCCOCCNc1ccccc1)NCCOCCOCCOCCOC[C@@]12CO[C@@H](O1)[C@H](NC(=O)C(F)(F)F)[C@@H](O)[C@H]2O [A12, 3,3′-((2-(2-(2-(2-(2-(phenylamino)ethoxy)ethoxy)ethoxy)acetamido)propane-1,3-diyl)bis(oxy))bis(N-(1-((1S,2R,3R,4R,5S)-2,3-dihydroxy-4-(2,2,2-trifluoroacetamido)-6,8-dioxabicyclo[3.2.1]octan-1-yl)-2,5,8,11-tetraoxatridecan-13-yl)propanamide)]

Structure (SMILES): CC(C)C[C@@H]1NC(=O)[C@H](Cc2c[nH]cn2)NC(=O)[C@H](Cc2c[nH]c3ccccc23)NC(=O)[C@H](C)NC(=O)[C@@H]2CSSC[C@H](NC(=O)[C@H](Cc3c[nH]c4ccccc34)NC(=O)[C@H](C(C)C)NC(=O)[C@H](CC(C)C)NC(=O)[C@H](CCC(=O)O)NC(=O)CNC1=O)C(=O)N[C@@H]([C@@H](C)O)C(=O)N1CCC[C@@H]1C(=O)N1C[C@@H](NC(=O)CCOCCOCCNC(=O)CCCc3cn(CCCCCC(=O)NC(COCCC(=O)NCCOCCOCCOCCOC[C@@]45CO[C@@H](O4)[C@H](Nc4nc(Cl)ns4)[C@@H](O)[C@H]5O)COCCC(=O)NCCOCCOCCOCCOC[C@@]45CO[C@@H](O4)[C@H](Nc4nc(Cl)ns4)[C@@H](O)[C@H]5O)nn3)C[C@H]1C(=O)N[C@@H](CC(=O)O)C(=O)N2 [Compound 17]
Kd [2, 5]: < 100 nM
EC50 [3, 6]: < 100 nM

Kd [2, 5]: < 100 nM
EC50 ([1]; 100 nM AF488-labeled antibody, 1 hour at 4° C., class symbols, read-out: Ternary Complex EC50): < 100 nM
Structure (SMILES): CC(C)C[C@@H]1NC(=O)[C@H](Cc2cnc[nH]2)NC(=O)[C@H](Cc2c[nH]c3ccccc23)NC(=O)[C@H](C)NC(=O)[C@@H]2CSSC[C@H](NC(=O)[C@H](Cc3c[nH]c4ccccc34)NC(=O)[C@H](C(C)C)NC(=O)[C@H](CC(C)C)NC(=O)[C@H](CCC(=O)O)NC(=O)CNC1=O)C(=O)N[C@@H]([C@@H](C)O)C(=O)N1CCC[C@@H]1C(=O)N1C[C@@H](NC(=O)COCCOCCOCCOC[C@H]3OC[C@H](Nc4nccc(C(F)(F)F)n4)[C@@H](O)[C@H]3O)C[C@H]1C(=O)N[C@@H](CC(=O)O)C(=O)N2 [Compound 60]

Structure (SMILES): CC(C)C[C@@H]1NC(=O)[C@H](Cc2c[nH]cn2)NC(=O)[C@H](Cc2c[nH]c3ccccc23)NC(=O)[C@H](C)NC(=O)[C@@H]2CSSC[C@H](NC(=O)[C@H](Cc3c[nH]c4ccccc34)NC(=O)[C@H](C(C)C)NC(=O)[C@H](CC(C)C)NC(=O)[C@H](CCC(=O)O)NC(=O)CNC1=O)C(=O)N[C@@H]([C@@H](C)O)C(=O)N1CCC[C@@H]1C(=O)N1C[C@@H](NC(=O)CCOCCOCCOCCOCCNC(=O)CCCc3cn(C[C@@]45CO[C@@H](O4)[C@H](Nc4nc(Cl)ns4)[C@@H](O)[C@H]5O)nn3)C[C@H]1C(=O)N[C@@H](CC(=O)O)C(=O)N2 [Compound 15]
Kd [2, 5]: < 100 nM
EC50 [3, 6]: 100 to 500 nM

EC50 ([1]; ternary complex formation, read-out: TCF EC50): < 100 nM
Kd [4]: < 100 nM
Structure (SMILES): CC(C)C[C@@H]1NC(=O)[C@H](Cc2c[nH]cn2)NC(=O)[C@H](Cc2c[nH]c3ccccc23)NC(=O)[C@H](C)NC(=O)[C@@H]2CSSC[C@H](NC(=O)[C@H](Cc3c[nH]c4ccccc34)NC(=O)[C@H](C(C)C)NC(=O)[C@H](CC(C)C)NC(=O)[C@H](CCC(=O)O)NC(=O)CNC1=O)C(=O)N[C@@H]([C@@H](C)O)C(=O)N1CCC[C@@H]1C(=O)N1C[C@@H](NC(=O)CCOCCOCCOCCOCCNC(=O)CCCc3cn(CCCCCC(=O)NC(COCCC(=O)NCCOCCOCCOCCOC[C@H]4OC[C@H](Nc5nccc(C(F)(F)F)n5)[C@@H](O)[C@H]4O)(COCCC(=O)NCCOCCOCCOCCOC[C@H]4OC[C@H](Nc5nccc(C(F)(F)F)n5)[C@@H](O)[C@H]4O)COCCC(=O)NCCOCCOCCOCCOC[C@H]4OC[C@H](Nc5nccc(C(F)(F)F)n5)[C@@H](O)[C@H]4O)nn3)C[C@H]1C(=O)N[C@@H](CC(=O)O)C(=O)N2 [Compound 86]

Structure (SMILES): CC(C)C[C@@H]1NC(=O)[C@H](Cc2c[nH]cn2)NC(=O)[C@H](Cc2c[nH]c3ccccc23)NC(=O)[C@H](C)NC(=O)[C@@H]2CSSC[C@H](NC(=O)[C@H](Cc3c[nH]c4ccccc34)NC(=O)[C@H](C(C)C)NC(=O)[C@H](CC(C)C)NC(=O)[C@H](CCC(=O)O)NC(=O)CNC1=O)C(=O)N[C@@H]([C@@H](C)O)C(=O)N1CCC[C@@H]1C(=O)N1C[C@@H](NC(=O)CNC(COCCC(=O)NCCOCCOCCOCCOC[C@H]3OC[C@H](Nc4cncc(C(F)(F)F)n4)[C@@H](O)[C@H]3O)COCCC(=O)NCCOCCOCCOCCOC[C@H]3OC[C@H](Nc4cncc(C(F)(F)F)n4)[C@@H](O)[C@H]3O)C[C@H]1C(=O)N[C@@H](CC(=O)O)C(=O)N2 [Compound 74]
Kd ([2]; SPR, read-out: IgG KD): < 100 nM
EC50 [3, 7]: < 100 nM

Structure (SMILES): CC(C)C[C@@H]1NC(=O)[C@H](Cc2c[nH]cn2)NC(=O)[C@H](Cc2c[nH]c3ccccc23)NC(=O)[C@H](C)NC(=O)[C@@H](NC(=O)[C@H](CC(=O)O)NC(=O)CCOCCOCCOCCOCCNC(=O)CCCc2cn(CCCCCC(=O)NC(COCCC(=O)NCCOCCOCCOCCOC[C@H]3OC[C@H](Nc4nccc(C(F)(F)F)n4)[C@@H](O)[C@H]3O)COCCC(=O)NCCOCCOCCOCCOC[C@H]3OC[C@H](Nc4nccc(C(F)(F)F)n4)[C@@H](O)[C@H]3O)nn2)CSSC[C@@H](C(=O)N[C@H](C(N)=O)[C@@H](C)O)NC(=O)[C@H](Cc2c[nH]c3ccccc23)NC(=O)[C@H](C(C)C)NC(=O)[C@H](CC(C)C)NC(=O)[C@H](CCC(=O)O)NC(=O)CNC1=O [Compound 22]
Kd ([2]; read-out: IgG KD): < 100 nM
Kd ([2]; read-out: IgG SPR Binding Kd): < 100 nM
EC50 ([3]; read-out: Uptake Assay EC50): < 100 nM
EC50 ([3]; read-out: Uptake EC50): < 100 nM

Structure (SMILES): CC(C)C[C@@H]1NC(=O)[C@H](Cc2cnc[nH]2)NC(=O)[C@H](Cc2c[nH]c3ccccc23)NC(=O)[C@H](C)NC(=O)[C@@H]2CSSC[C@H](NC(=O)[C@H](Cc3c[nH]c4ccccc34)NC(=O)[C@H](C(C)C)NC(=O)[C@H](CC(C)C)NC(=O)[C@H](CCC(=O)O)NC(=O)CNC1=O)C(=O)N[C@@H]([C@@H](C)O)C(=O)N1CCC[C@@H]1C(=O)N1C[C@H](NC(=O)CNC(COCCC(=O)NCCOCCOCCOCCOC[C@H]3OC[C@H](Nc4cncc(C(F)(F)F)n4)[C@@H](O)[C@H]3O)COCCC(=O)NCCOCCOCCOCCOC[C@H]3OC[C@H](Nc4cncc(C(F)(F)F)n4)[C@@H](O)[C@H]3O)C[C@H]1C(=O)N[C@@H](CC(=O)O)C(=O)N2 [Compound 92]
Kd ([2]; SPR, read-out: IgG KD): < 100 nM
EC50 [3, 7]: < 100 nM
